Where “and” joins values, the source holds several entries; their conditions need not be identical. Identical values can stand only once. Toxic doses and inconclusive results are not listed.
System: P388 leukemia ip, CD2F1 mice, survival T/C
Assay: NCI In Vivo Anticancer Drug Screen. Data for tumor model P388 Leukemia (intraperitoneal) in CD2F1 (CDF1) mice
Details: endpoint: median survival time, higher = longer survival
How it was run: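 Mice carrying the transplanted tumor received test compound or vehicle. Survival was recorded in each group, and the value is the treated-group measurement divided by that of the vehicle-treated control group.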

[1] = dose: 50.0 mg/kg/injection, schedule: Q01DX005 (ip), vehicle: Klucel (hydroxypropylcellulose) (HPC)
[2] = dose: 100.0 mg/kg/injection, schedule: Q01DX005 (ip), vehicle: Klucel (hydroxypropylcellulose) (HPC)
[3] = dose: 200.0 mg/kg/injection, schedule: Q01DX005 (ip), vehicle: Klucel (hydroxypropylcellulose) (HPC)
[4] = dose: 50.0 mg/kg/injection, schedule: Q01DX009 (ip), vehicle: saline with Tween-80

CC(N)CCC(C)(C)O (centres undefined)
T/C (dose: 25.0 mg/kg/injection, schedule: Q04DX003 (ip), vehicle: saline): 100 % of control | T/C (dose: 50.0 mg/kg/injection, schedule: Q04DX003 (ip), vehicle: saline): 90 % of control | T/C (dose: 100.0 mg/kg/injection, schedule: Q04DX003 (ip), vehicle: saline): 100 % of control

CCOc1c(N=Nc2cccc([N+](=O)[O-])c2)c(C)nn1C(N)=S
T/C (dose: 15.0 mg/kg/injection, schedule: Q01DX005 (ip), vehicle: Klucel + Tween-80): 92 % of control | T/C (dose: 30.0 mg/kg/injection, schedule: Q01DX005 (ip), vehicle: Klucel + Tween-80): 94 % of control

COc1ccc(-c2sc(/N=C/c3ccc(N(C)CCC#N)cc3)c(C#N)c2C)cc1OC
T/C (dose: 3.13 mg/kg/injection, schedule: Q01DX009 (ip), vehicle: Klucel (hydroxypropylcellulose) (HPC)): 89 % of control | T/C (dose: 6.25 mg/kg/injection, schedule: Q01DX009 (ip), vehicle: Klucel (hydroxypropylcellulose) (HPC)): 91 % of control | T/C (dose: 12.5 mg/kg/injection, schedule: Q01DX009 (ip), vehicle: Klucel (hydroxypropylcellulose) (HPC)): 91 % of control | T/C (dose: 25.0 mg/kg/injection, schedule: Q01DX009 (ip), vehicle: Klucel (hydroxypropylcellulose) (HPC)): 90 % of control

CN(C)CCOC(=O)C1CC2(C1)CC(C(=O)OCCN(C)C)C2 (centres undefined)
T/C [1]: 95 % of control | T/C [2]: 97 % of control | T/C [3]: 103 % of control

C[CH2][Sn]([CH2]C)([n]1c2ccccc2c2c(C)c3cnccc3c(C)c21)[n]1c2ccccc2c2c(C)c3cnccc3c(C)c21
T/C (dose: 1.56 mg/kg/injection, schedule: Q01DX005 (ip), vehicle: Klucel (hydroxypropylcellulose) (HPC)): 118 % of control | T/C (dose: 6.25 mg/kg/injection, schedule: Q01DX005 (ip), vehicle: Klucel (hydroxypropylcellulose) (HPC)): 155 % of control

CCCCOP(=O)(O)OCCCC.[Th]
T/C (dose: 25.0 mg/kg/injection, schedule: Q01DX001 (ip), vehicle: saline with Tween-80): 113 % of control | T/C (dose: 50.0 mg/kg/injection, schedule: Q01DX001 (ip), vehicle: saline with Tween-80): 100 % of control | T/C (dose: 100.0 mg/kg/injection, schedule: Q01DX001 (ip), vehicle: saline with Tween-80): 102 % of control | T/C (dose: 400.0 mg/kg/injection, schedule: Q01DX001 (ip), vehicle: saline with Tween-80): 97 % of control

Cc1ccc(S(=O)(=O)C23C(N=NC2(C)C)C3(C)C)cc1 (centres undefined)
T/C [1]: 103 % of control | T/C [2]: 103 % of control | T/C [3]: 100 % of control

NC(C/[N+]([O-])=N/O)C(=O)O (centres undefined)
T/C (dose: 8.78 mg/kg/injection, schedule: Q01DX010 (ip), vehicle: alkali diluted with saline): 119 % of control | T/C (dose: 9.38 mg/kg/injection, schedule: Q01DX009 (ip), vehicle: alkali diluted with saline): 120 % of control | T/C (dose: 13.2 mg/kg/injection, schedule: Q01DX010 (ip), vehicle: alkali diluted with saline): 124 % of control | T/C (dose: 15.6 mg/kg/injection, schedule: Q01DX005 (ip), vehicle: saline with Tween-80): 124 % of control | T/C (dose: 15.6 mg/kg/injection, schedule: Q01DX005 (iv), vehicle: saline with Tween-80): 107 % of control | T/C (dose: 27.0 mg/kg/injection, schedule: Q01DX009 (ip), vehicle: alkali diluted with saline): 161 % of control | T/C (dose: 30.0 mg/kg/injection, schedule: Q01DX005 (ip), vehicle: alkali diluted with saline): 161 % of control | T/C (dose: 31.3 mg/kg/injection, schedule: Q01DX005 (iv), vehicle: saline with Tween-80): 103 % of control | T/C (dose: 37.5 mg/kg/injection, schedule: Q01DX009 (ip), vehicle: alkali diluted with saline): 161 % of control and 162 % of control | T/C (dose: 40.0 mg/kg/injection, schedule: Q01DX005 (ip), vehicle: alkali diluted with saline): 150 % of control | T/C (dose: 40.0 mg/kg/injection, schedule: Q01DX009 (ip), vehicle: alkali diluted with saline): 165 % of control | T/C (dose: 45.0 mg/kg/injection, schedule: Q01DX009 (ip), vehicle: alkali diluted with saline): 152 % of control and 166 % of control | T/C (dose: 60.0 mg/kg/injection, schedule: Q01DX005 (ip), vehicle: alkali diluted with saline): 185 % of control | T/C (dose: 62.5 mg/kg/injection, schedule: Q01DX005 (iv), vehicle: saline with Tween-80): 111 % of control | T/C (dose: 62.5 mg/kg/injection, schedule: Q01DX009 (ip), vehicle: saline): 150 % of control | T/C (dose: 62.5 mg/kg/injection, schedule: Q01DX009 (ip), vehicle: water): 163 % of control | T/C (dose: 66.7 mg/kg/injection, schedule: Q01DX009 (ip), vehicle: alkali diluted with saline): 107 % of control | T/C (dose: 75.0 mg/kg/injection, schedule: Q01DX009 (ip), vehicle: alkali diluted with water): 166 % of control | T/C (dose: 80.0 mg/kg/injection, schedule: Q01DX005 (ip), vehicle: alkali diluted with saline): 182 % of control | T/C (dose: 80.0 mg/kg/injection, schedule: Q01DX009 (ip), vehicle: alkali diluted with saline): 99 % of control | T/C (dose: 100.0 mg/kg/injection, schedule: Q01DX010 (ip), vehicle: alkali diluted with saline): 92 % of control | T/C (dose: 108.0 mg/kg/injection, schedule: Q04DX003 (ip), vehicle: alkali diluted with saline): 161 % of control | T/C (dose: 112.5 mg/kg/injection, schedule: Q04DX003 (ip), vehicle: alkali diluted with saline): 150 % of control | T/C (dose: 120.0 mg/kg/injection, schedule: Q01DX005 (ip), vehicle: alkali diluted with saline): 70 % of control | T/C (dose: 125.0 mg/kg/injection, schedule: Q01DX005 (ip), vehicle: saline with Tween-80): 157 % of control | T/C (dose: 125.0 mg/kg/injection, schedule: Q01DX005 (iv), vehicle: saline with Tween-80): 107 % of control | T/C (dose: 125.0 mg/kg/injection, schedule: Q01DX009 (ip), vehicle: alkali diluted with saline): 66 % of control and 86 % of control | T/C (dose: 125.0 mg/kg/injection, schedule: Q01DX009 (ip), vehicle: saline): 154 % of control | T/C (dose: 150.0 mg/kg/injection, schedule: Q01DX009 (ip), vehicle: alkali diluted with water): 96 % of control | T/C (dose: 180.0 mg/kg/injection, schedule: Q04DX003 (ip), vehicle: alkali diluted with saline): 166 % of control | T/C (dose: 200.0 mg/kg/injection, schedule: Q04DX003 (ip), vehicle: alkali diluted with water): 155 % of control | T/C (dose: 225.0 mg/kg/injection, schedule: Q04DX003 (ip), vehicle: alkali diluted with saline): 178 % of control | T/C (dose: 300.0 mg/kg/injection, schedule: Q04DX003 (ip), vehicle: alkali diluted with saline): 175 % of control | T/C (dose: 450.0 mg/kg/injection, schedule: Q04DX003 (ip), vehicle: alkali diluted with saline): 115 % of control | T/C (dose: 500.0 mg/kg/injection, schedule: Q04DX003 (ip), vehicle: alkali diluted with saline): 198 % of control

COC(=O)OC(C#N)c1ccccc1[N+](=O)[O-] (centres undefined)
T/C (dose: 1.56 mg/kg/injection, schedule: Q01DX009 (ip), vehicle: saline): 88 % of control | T/C (dose: 3.12 mg/kg/injection, schedule: Q01DX009 (ip), vehicle: saline): 98 % of control | T/C (dose: 6.25 mg/kg/injection, schedule: Q01DX009 (ip), vehicle: saline): 105 % of control | T/C (dose: 6.25 mg/kg/injection, schedule: Q01DX009 (ip), vehicle: suspension in saline): 88 % of control | T/C (dose: 200.0 mg/kg/injection, schedule: Q01DX009 (ip), vehicle: saline): 94 % of control

O=C(O)CCOCCCOCCC(=O)O
T/C (dose: 50.0 mg/kg/injection, schedule: Q01DX005 (ip), vehicle: saline): 95 % of control | T/C (dose: 100.0 mg/kg/injection, schedule: Q01DX005 (ip), vehicle: saline): 98 % of control | T/C (dose: 200.0 mg/kg/injection, schedule: Q01DX005 (ip), vehicle: saline): 100 % of control

COC(=O)c1ccc(CNC(=O)c2ccccc2C(=O)NCC2(CBr)OCCO2)cc1
T/C (dose: 50.0 mg/kg/injection, schedule: Q01DX009 (ip), vehicle: Klucel (hydroxypropylcellulose) (HPC)): 113 % of control | T/C (dose: 100.0 mg/kg/injection, schedule: Q01DX009 (ip), vehicle: Klucel (hydroxypropylcellulose) (HPC)): 99 % of control | T/C (dose: 200.0 mg/kg/injection, schedule: Q01DX009 (ip), vehicle: Klucel (hydroxypropylcellulose) (HPC)): 96 % of control

O=C(NC(=S)c1cccc2ccccc12)Nc1ccc(Cl)c(Cl)c1
T/C (dose: 12.5 mg/kg/injection, schedule: Q01DX009 (ip), vehicle: saline with Tween-80): 89 % of control | T/C (dose: 25.0 mg/kg/injection, schedule: Q01DX009 (ip), vehicle: saline with Tween-80): 87 % of control | T/C [4]: 103 % of control

CC12CCC3(C)OCC(CO)(CO1)N23 (centres undefined)
T/C [4]: 91 % of control | T/C (dose: 100.0 mg/kg/injection, schedule: Q01DX009 (ip), vehicle: saline with Tween-80): 90 % of control | T/C (dose: 200.0 mg/kg/injection, schedule: Q01DX009 (ip), vehicle: saline with Tween-80): 91 % of control

CC(C)CC1N=C(NN=C(CCl)CCl)SP1(=O)NNc1ncccn1 (centres undefined)
T/C (dose: 60.0 mg/kg/injection, schedule: Q01DX005 (ip), vehicle: Klucel (hydroxypropylcellulose) (HPC)): 100 % of control | T/C (dose: 120.0 mg/kg/injection, schedule: Q01DX005 (ip), vehicle: Klucel (hydroxypropylcellulose) (HPC)): 100 % of control | T/C (dose: 240.0 mg/kg/injection, schedule: Q01DX005 (ip), vehicle: Klucel (hydroxypropylcellulose) (HPC)): 113 % of control

CCOC1=C(CC)C(=O)c2ccccc2C1=O
T/C [1]: 100 % of control | T/C [2]: 100 % of control | T/C [3]: 107 % of control

Reference: PubChem BioAssay AID330 (DTP/NCI, 2004)
